Holding throughout (assay): Method 1: intracellular Ca2+ release (FLIPR, Calcium 5) in recombinant CHO-K1 cells
Common to all, as to format: cell-based

For one assay, the target named is T1, human S1PR5 receptor (Homo sapiens, UniProt Q9H228).
T1 construct: host or cells: CHO-K1
To be noted: agonist potency, determined with method 1 (symbols A-D); read-out: S1P5 EC50 range. An outline of the steps:
(§1)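 CHO-K1 cells co-expressing the receptor, aequorin and Gq/i5 were loaded with Calcium 5 dye 1 h at 37° C, then held 45 min at RT. Serially diluted compounds added in HBSS/20 mmol/L Hepes/2.5 mmol/L probenecid/0.1% BSA pH 7.4. FLIPR Tetra fluorescence, normalized to phospho-fingolimod, fitted for EC50.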

In another assay the target is T2, human S1PR4 receptor (Homo sapiens, UniProt O95977).
T2 construct: host or cells: CHO-K1
T2 sequence (O95977 1-384): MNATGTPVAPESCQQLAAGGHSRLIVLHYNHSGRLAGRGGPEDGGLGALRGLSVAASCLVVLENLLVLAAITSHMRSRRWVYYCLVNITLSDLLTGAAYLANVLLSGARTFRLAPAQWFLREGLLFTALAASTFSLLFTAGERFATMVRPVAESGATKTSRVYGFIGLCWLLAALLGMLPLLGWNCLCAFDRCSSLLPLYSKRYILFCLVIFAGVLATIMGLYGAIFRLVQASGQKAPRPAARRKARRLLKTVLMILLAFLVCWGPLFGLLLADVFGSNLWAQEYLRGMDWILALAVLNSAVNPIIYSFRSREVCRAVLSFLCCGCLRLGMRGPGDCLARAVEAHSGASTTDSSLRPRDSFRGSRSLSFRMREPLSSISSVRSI
To be noted: (1): determined with method 1; read-out: S1P4 EC50. An outline of the steps: as §1

The next assay concerns the target T3, human S1PR3 receptor (Homo sapiens, UniProt Q99500).
T3 construct: host or cells: CHO-K1
To be noted: (1): determined with method 1; read-out: S1P3 EC50. An outline of the steps: as §1

A further assay has as its target T4, human S1PR1 receptor (Homo sapiens, UniProt P21453).
T4 construct: host or cells: CHO-K1
The following applies: (1): determined with method 1; read-out: S1P1 EC50. Put shortly:
as §1

SMILES strings stand for the structures. Some results are limits rather than exact numbers.

T4 sequence (P21453 whole entry): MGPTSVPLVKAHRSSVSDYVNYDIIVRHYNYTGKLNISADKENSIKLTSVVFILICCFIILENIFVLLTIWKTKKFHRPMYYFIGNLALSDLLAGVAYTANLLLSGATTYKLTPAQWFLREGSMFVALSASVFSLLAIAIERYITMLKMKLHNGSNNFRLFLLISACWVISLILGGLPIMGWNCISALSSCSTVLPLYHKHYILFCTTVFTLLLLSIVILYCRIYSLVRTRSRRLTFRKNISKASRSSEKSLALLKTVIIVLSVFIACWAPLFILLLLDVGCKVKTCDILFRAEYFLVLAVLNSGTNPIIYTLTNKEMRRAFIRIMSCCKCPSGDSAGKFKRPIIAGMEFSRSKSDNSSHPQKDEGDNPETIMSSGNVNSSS
T1 sequence (Q9H228 whole entry): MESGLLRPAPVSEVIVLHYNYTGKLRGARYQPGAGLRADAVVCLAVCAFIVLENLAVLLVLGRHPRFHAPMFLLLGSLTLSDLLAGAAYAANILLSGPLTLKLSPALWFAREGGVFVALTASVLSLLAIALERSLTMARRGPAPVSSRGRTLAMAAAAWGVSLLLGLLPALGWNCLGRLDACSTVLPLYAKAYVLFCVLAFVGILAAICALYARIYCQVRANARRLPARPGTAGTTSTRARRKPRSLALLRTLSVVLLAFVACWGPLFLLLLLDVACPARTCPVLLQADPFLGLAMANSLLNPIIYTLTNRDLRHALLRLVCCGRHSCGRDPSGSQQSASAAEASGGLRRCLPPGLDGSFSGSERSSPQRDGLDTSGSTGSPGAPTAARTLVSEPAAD
T3 sequence (Q99500 whole entry): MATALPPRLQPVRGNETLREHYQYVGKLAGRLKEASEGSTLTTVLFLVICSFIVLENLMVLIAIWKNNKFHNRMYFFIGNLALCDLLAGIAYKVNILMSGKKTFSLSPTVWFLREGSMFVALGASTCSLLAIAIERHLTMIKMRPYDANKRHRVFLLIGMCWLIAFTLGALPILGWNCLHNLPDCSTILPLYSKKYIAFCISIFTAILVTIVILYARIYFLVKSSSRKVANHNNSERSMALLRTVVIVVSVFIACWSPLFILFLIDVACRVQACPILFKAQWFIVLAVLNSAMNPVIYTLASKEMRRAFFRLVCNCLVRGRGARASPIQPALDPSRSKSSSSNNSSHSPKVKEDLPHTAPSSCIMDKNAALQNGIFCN

Take `CCc1cccc(Cl)c1COc1ccc(-c2ncc3c(n2)CCN(CC(C)C(=O)O)C3)cc1` (centres unmarked) [Compound 18, 3-(2-(4-((2-chloro-6-ethylbenzyl)oxy)phenyl)-7,8-dihydropyrido[4,3-d]pyrimidin-6(5H)-yl)-2-methylpropanoic acid]: the EC50 on human S1PR5 receptor is 0.01 to 0.1 µM; at human S1PR4 receptor it was less than 1 µM; on human S1PR3 receptor, greater than 1 µM; at human S1PR1 receptor, greater than 1 µM.

`CC(CC(=O)O)CN1CCc2nc(-c3ccc(OCc4cccc(C(F)(F)F)c4)cc3)ncc2C1` (centres unmarked) [Compound 238, 3-methyl-4-(2-(4-((3-(trifluoromethyl)benzyl)oxy)phenyl)-7,8-dihydropyrido[4,3-d]pyrimidin-6(5H)-yl)butanoic acid]: the EC50 was less than 0.01 µM on human S1PR5 receptor, less than 1 µM on human S1PR4 receptor, greater than 1 µM at human S1PR3 receptor and less than 1 µM on human S1PR1 receptor.

(Values after patent US10556907B2 (AbbVie Inc., priority 2015, dated 2020).)
